Measured values published in ChEMBL document CHEMBL5291721, “A preclinical secondary pharmacology resource illuminates target-adverse drug reaction associations of marketed drugs” (Nat Commun, 2023).

Key:
[1] = target: T1, Type-1 angiotensin II receptor (Homo sapiens, UniProt P30556)
T1 sequence (P30556 whole entry): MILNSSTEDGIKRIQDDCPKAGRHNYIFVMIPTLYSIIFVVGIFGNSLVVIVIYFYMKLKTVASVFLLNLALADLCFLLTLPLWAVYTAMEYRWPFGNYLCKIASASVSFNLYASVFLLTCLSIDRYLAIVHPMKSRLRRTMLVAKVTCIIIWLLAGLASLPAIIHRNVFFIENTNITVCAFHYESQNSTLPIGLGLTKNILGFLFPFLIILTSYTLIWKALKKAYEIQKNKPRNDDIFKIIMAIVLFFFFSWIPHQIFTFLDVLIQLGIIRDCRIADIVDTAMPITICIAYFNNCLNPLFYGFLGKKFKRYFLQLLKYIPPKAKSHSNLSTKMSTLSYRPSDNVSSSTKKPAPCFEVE

[2] = target: Neuronal acetylcholine receptor subunit alpha-4 (Homo sapiens, UniProt P43681)
Sequence of Neuronal acetylcholine receptor subunit alpha-4 (P43681 whole entry): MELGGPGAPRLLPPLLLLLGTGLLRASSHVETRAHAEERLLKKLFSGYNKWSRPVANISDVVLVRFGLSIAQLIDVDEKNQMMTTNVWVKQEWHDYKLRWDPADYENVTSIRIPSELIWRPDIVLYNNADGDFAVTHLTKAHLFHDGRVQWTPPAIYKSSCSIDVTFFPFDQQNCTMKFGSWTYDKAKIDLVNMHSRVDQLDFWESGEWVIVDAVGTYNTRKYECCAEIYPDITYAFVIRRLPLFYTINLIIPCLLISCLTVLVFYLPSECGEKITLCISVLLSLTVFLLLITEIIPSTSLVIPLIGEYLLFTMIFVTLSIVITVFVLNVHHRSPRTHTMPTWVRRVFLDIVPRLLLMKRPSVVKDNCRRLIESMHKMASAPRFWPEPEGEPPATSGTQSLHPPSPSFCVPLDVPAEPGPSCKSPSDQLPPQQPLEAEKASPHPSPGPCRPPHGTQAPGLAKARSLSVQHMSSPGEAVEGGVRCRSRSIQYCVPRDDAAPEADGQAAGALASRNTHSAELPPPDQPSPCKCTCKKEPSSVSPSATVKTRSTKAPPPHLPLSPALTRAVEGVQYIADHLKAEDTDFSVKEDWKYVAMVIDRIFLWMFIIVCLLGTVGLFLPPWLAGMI

[3] = target: T2, Gamma-aminobutyric acid receptor subunit alpha-1 (Rattus norvegicus, UniProt P62813)
T2 sequence (P62813 whole entry): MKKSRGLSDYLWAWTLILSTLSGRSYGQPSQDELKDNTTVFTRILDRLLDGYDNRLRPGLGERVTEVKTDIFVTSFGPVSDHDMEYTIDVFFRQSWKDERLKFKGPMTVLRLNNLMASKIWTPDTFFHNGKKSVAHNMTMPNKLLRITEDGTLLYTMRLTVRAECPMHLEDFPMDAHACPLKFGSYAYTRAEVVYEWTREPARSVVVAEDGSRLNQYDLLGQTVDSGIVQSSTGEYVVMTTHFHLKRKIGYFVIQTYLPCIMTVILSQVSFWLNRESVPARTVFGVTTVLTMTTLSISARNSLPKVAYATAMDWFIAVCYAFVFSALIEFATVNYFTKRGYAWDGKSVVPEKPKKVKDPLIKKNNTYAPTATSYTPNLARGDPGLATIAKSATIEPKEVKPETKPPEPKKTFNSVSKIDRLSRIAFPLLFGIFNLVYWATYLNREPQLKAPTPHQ

[4] = target: T2, Gamma-aminobutyric acid receptor subunit alpha-1; assay type: functional
[5] = target: Glutamate receptor ionotropic, NMDA 1 (Rattus norvegicus, UniProt P35439)
Histamine H1 receptor = Histamine H1 receptor (Homo sapiens, UniProt P35367)
Sequence of Histamine H1 receptor (P35367 whole entry): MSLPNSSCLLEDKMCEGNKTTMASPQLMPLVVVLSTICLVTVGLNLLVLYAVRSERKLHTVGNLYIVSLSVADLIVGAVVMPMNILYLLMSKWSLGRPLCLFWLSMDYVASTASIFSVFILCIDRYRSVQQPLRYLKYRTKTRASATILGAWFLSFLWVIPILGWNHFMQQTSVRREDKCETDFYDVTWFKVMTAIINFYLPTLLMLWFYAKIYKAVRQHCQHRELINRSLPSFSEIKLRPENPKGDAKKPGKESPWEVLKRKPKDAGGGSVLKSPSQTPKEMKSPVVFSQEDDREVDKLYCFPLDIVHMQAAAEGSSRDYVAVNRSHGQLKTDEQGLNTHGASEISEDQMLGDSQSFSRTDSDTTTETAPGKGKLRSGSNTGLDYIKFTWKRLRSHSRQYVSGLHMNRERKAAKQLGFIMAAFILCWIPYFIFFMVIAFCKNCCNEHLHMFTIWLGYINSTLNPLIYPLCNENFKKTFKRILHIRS

Histamine H2 receptor = Histamine H2 receptor (Homo sapiens, UniProt P25021); assay type: functional, cell-based
Sequence of Histamine H2 receptor (P25021 whole entry): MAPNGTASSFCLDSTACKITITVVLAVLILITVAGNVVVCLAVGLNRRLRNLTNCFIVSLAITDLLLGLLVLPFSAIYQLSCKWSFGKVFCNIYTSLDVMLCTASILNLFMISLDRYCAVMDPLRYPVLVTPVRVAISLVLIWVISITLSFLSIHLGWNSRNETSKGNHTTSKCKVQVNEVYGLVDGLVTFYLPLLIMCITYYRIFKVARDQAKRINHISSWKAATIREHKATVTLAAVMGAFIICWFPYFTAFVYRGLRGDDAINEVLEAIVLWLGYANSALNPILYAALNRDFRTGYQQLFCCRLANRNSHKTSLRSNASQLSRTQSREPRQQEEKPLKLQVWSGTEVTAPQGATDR

[6] = target: T3, 5-hydroxytryptamine receptor 1A (Homo sapiens, UniProt P08908); assay type: functional, cell-based
T3 sequence (P08908 whole entry): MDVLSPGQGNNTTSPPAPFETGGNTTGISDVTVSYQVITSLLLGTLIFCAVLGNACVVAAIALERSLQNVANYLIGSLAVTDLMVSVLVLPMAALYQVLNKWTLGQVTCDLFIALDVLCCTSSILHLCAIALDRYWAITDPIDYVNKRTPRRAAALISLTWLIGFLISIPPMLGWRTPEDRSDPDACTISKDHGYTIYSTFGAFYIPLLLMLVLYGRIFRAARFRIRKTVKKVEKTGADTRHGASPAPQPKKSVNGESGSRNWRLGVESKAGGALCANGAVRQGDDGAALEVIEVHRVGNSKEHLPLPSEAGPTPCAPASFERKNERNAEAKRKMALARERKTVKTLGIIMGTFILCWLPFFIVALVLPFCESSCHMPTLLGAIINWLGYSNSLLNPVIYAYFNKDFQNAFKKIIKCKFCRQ

[7] = target: T4, 5-hydroxytryptamine receptor 3A (Homo sapiens, UniProt P46098); assay type: functional
T4 sequence (P46098 whole entry): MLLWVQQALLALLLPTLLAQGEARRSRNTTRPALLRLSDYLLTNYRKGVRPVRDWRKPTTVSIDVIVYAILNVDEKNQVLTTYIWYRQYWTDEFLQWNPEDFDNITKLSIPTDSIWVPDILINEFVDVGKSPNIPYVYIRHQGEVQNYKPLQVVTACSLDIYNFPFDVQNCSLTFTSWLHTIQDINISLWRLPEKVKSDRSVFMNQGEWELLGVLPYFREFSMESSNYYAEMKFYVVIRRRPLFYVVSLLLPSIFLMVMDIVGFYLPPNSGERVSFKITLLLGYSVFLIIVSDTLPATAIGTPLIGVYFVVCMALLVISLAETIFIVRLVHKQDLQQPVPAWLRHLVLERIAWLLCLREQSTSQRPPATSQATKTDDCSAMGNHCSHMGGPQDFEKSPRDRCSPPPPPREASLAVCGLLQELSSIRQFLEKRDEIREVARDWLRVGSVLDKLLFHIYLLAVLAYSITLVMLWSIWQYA

Motilin receptor = Motilin receptor (Homo sapiens, UniProt O43193)
Sequence of Motilin receptor (O43193 whole entry): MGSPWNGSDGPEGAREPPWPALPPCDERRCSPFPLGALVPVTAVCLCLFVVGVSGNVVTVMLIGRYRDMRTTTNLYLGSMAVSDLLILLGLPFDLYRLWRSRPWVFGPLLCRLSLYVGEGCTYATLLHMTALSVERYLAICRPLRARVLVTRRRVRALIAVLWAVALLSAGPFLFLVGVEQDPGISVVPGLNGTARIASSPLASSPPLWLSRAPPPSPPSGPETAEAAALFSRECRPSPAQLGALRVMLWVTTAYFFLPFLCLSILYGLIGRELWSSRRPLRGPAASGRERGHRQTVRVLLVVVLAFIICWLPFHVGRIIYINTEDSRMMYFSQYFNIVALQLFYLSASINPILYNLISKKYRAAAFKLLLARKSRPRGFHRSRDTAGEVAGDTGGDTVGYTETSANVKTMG

[8] = target: T5, Neuropeptide Y receptor type 1 (Homo sapiens, UniProt P25929)
T5 sequence (P25929 whole entry): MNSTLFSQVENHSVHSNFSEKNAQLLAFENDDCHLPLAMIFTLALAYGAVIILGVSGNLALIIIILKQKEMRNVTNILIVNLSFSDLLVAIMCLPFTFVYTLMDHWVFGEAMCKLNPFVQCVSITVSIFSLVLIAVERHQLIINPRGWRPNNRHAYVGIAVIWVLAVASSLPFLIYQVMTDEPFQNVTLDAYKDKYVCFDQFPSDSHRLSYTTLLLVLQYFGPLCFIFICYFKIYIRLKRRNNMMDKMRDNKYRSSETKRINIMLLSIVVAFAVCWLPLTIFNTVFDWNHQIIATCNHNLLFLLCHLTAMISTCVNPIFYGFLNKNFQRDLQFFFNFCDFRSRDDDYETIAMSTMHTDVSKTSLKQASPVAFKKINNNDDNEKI

[9] = target: Sodium-dependent noradrenaline transporter (Homo sapiens, UniProt P23975)
Sequence of Sodium-dependent noradrenaline transporter (P23975 whole entry): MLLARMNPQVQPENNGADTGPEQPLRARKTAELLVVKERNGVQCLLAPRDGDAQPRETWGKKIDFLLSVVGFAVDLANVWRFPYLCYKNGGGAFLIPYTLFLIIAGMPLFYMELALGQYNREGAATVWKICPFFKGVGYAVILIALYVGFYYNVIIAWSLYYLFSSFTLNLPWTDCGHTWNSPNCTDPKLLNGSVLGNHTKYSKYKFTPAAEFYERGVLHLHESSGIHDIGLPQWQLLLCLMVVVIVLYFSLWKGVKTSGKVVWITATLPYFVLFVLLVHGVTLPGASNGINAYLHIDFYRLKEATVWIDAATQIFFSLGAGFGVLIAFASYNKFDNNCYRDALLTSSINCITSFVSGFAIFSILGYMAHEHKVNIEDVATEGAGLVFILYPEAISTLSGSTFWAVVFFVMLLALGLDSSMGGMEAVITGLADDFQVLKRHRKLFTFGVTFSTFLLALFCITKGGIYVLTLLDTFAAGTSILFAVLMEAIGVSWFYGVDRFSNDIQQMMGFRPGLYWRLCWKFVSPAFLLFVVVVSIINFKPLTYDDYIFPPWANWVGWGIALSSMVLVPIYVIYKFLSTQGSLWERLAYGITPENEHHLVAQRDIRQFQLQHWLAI

[10] = target: Sodium-dependent serotonin transporter (Homo sapiens, UniProt P31645)
Sequence of Sodium-dependent serotonin transporter (P31645 whole entry): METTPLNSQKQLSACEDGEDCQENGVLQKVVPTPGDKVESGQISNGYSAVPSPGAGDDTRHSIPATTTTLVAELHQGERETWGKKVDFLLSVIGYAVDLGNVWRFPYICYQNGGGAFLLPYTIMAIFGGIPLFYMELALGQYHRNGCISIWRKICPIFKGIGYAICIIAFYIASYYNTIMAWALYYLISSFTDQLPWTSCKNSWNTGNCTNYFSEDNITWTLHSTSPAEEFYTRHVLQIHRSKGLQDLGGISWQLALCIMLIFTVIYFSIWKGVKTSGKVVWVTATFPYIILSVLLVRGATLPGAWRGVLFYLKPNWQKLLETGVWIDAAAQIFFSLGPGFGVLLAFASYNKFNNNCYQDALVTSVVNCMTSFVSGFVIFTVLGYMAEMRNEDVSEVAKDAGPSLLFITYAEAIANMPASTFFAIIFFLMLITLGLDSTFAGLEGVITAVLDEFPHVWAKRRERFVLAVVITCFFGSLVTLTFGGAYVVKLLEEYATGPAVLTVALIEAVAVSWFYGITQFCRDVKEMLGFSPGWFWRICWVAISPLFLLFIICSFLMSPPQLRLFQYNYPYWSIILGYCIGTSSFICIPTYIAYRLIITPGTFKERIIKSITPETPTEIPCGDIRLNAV

D(3) dopamine receptor = D(3) dopamine receptor (Homo sapiens, UniProt P35462)
Sequence of D(3) dopamine receptor (P35462 whole entry): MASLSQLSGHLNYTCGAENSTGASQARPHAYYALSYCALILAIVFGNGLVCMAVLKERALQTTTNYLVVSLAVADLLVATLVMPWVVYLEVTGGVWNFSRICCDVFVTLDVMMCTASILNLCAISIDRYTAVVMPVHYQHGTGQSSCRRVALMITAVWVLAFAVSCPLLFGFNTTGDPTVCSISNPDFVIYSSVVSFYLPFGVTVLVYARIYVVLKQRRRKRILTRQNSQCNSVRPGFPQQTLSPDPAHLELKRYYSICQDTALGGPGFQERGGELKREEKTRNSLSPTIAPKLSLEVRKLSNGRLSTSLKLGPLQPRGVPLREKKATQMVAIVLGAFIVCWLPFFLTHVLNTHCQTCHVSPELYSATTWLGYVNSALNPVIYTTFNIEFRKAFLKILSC

Histamine H3 receptor = Histamine H3 receptor (Homo sapiens, UniProt Q9Y5N1)
Sequence of Histamine H3 receptor (Q9Y5N1 whole entry): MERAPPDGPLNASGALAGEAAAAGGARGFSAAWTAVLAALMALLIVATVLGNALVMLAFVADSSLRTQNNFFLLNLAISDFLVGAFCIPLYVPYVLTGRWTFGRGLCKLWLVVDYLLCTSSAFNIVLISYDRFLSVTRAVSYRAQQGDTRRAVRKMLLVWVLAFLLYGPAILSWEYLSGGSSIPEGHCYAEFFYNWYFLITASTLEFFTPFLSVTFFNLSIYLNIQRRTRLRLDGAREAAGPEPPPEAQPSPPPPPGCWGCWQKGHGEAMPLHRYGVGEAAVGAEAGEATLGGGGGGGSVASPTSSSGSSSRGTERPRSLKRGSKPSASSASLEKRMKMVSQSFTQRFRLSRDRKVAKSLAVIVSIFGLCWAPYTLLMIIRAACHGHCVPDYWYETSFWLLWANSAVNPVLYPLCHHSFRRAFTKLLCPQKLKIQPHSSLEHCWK

[11] = target: T6, Equilibrative nucleoside transporter 1 (Homo sapiens, UniProt Q99808)
T6 sequence (Q99808 whole entry): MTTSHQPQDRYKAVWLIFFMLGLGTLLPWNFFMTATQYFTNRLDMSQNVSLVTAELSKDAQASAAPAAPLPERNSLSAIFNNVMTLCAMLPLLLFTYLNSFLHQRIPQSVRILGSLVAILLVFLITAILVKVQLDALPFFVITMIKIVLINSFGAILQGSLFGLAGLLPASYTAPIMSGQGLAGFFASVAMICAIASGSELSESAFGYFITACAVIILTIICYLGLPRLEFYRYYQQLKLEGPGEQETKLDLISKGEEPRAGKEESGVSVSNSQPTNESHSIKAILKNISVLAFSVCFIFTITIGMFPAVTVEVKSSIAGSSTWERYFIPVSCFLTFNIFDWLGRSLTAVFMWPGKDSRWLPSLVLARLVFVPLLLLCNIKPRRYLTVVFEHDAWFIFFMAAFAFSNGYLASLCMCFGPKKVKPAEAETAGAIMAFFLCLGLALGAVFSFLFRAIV
Note: assay procedure not described here.

AC50 [1]	AC50 [2]	AC50 [3]	AC50 [4]	AC50 [5]	AC50 (Histamine H1 receptor)	AC50 (Histamine H2 receptor)	AC50 [7]	AC50 (Motilin receptor)	AC50 [8]	AC50 [9]	AC50 [10]	AC50 (D(3) dopamine receptor)	AC50 (Histamine H3 receptor)	AC50 [11]	SMILES	AC50 [6]
> 30 µM	> 30 µM	> 30 µM	> 30 µM	> 30 µM	> 30 µM	> 30 µM	> 30 µM	> 30 µM	> 30 µM	> 30 µM	> 30 µM	> 30 µM	> 30 µM	> 30 µM	CCN(CC)CC(=O)Oc1ccc(NC(C)=O)cc1 [PROPACETAMOL]	–
> 30 µM	> 30 µM	> 30 µM	> 30 µM	> 30 µM	18 µM	> 30 µM	> 30 µM	15 µM	> 30 µM	> 30 µM	> 30 µM	2.5 µM	> 30 µM	> 30 µM	CCCOC(C(=O)OC1CCN(C)CC1)(c1ccccc1)c1ccccc1 [PROPIVERINE]	–
> 30 µM	> 30 µM	> 30 µM	> 30 µM	> 30 µM	> 30 µM	> 30 µM	> 30 µM	> 30 µM	> 30 µM	> 30 µM	> 30 µM	> 30 µM	> 30 µM	> 30 µM	Cc1cc2nc3c(=O)[nH]c(=O)nc-3n(C[C@H](O)[C@H](O)[C@H](O)COP(=O)(O)O)c2cc1C [RIBOFLAVIN 5'-PHOSPHATE]	–
> 30 µM	> 30 µM	6.2 µM	> 30 µM	> 30 µM	> 30 µM	> 30 µM	> 30 µM	> 30 µM	> 30 µM	> 30 µM	> 30 µM	> 30 µM	> 30 µM	–	COc1c(O[C@@H]2O[C@H](CO)[C@@H](O)[C@H](O)[C@H]2O)cc2c(c1OC)-c1ccc(SC)c(=O)cc1[C@@H](NC(C)=O)CC2 [THIOCOLCHICOSIDE]	> 30 µM
> 10 µM	> 10 µM	> 10 µM	> 10 µM	> 10 µM	> 10 µM	> 10 µM	> 30 µM	> 10 µM	> 10 µM	21.7 µM	12.2 µM	> 30 µM	> 10 µM	> 30 µM	C=CC(N)CCC(=O)O (stereo not given) [VIGABATRIN]	–
> 30 µM	> 10 µM	> 30 µM	> 30 µM	> 30 µM	> 30 µM	> 30 µM	> 30 µM	> 10 µM	> 30 µM	> 30 µM	> 30 µM	> 30 µM	> 10 µM	> 30 µM	N#C[C@@H]1CCCN1C(=O)CNC12CC3CC(CC(O)(C3)C1)C2 [VILDAGLIPTIN]	–

SMILES	AC50 [1]	AC50 [2]	AC50 [3]	AC50 [4]	AC50 [5]	AC50 (Histamine H1 receptor)	AC50 (Histamine H2 receptor)	AC50 [7]	AC50 (Motilin receptor)	AC50 [8]	AC50 [9]	AC50 [10]	AC50 (D(3) dopamine receptor)	AC50 (Histamine H3 receptor)	AC50 [11]	AC50 [6]
CC[N+]1(C)CCCC(OC(=O)C(O)(c2ccccc2)c2ccccc2)C1 (stereo not given) [PIPENZOLATE]	> 30 µM	> 30 µM	> 30 µM	> 30 µM	> 30 µM	27 µM	> 30 µM	> 30 µM	> 30 µM	> 30 µM	> 30 µM	> 30 µM	> 30 µM	> 30 µM	–	> 30 µM
